This passage reports fold change (FC) and Activity results from ChEMBL document CHEMBL5550132, “Structure-activity relationship in NOD2 agonistic muramyl dipeptides” (Eur J Med Chem, 2024).

Assay [1] addresses Nuclear factor NF-kappa-B complex (Homo sapiens) (UniProt Q00653+P19838+Q04206). Kind of assay: Activation of NF-KappaB (unknown origin) expressed in HEK293T cells assessed as fold change at 20 uM. The note with it: filed as activator. The assay is classed as cell-based.
For assay [2], the species on record is Cavia porcellus. Description: Induction of delayed type hypersensitivity in ABA-BSA immunized Hartley Guinea pigs assessed as reduction in skin lesions at 100 ug measured for 24 hrs. The format is functional. The note with it: dose 100 µg.
Assay [3] is filed under the species Cavia porcellus. Kind of assay: Induction of delayed type hypersensitivity in ABA-BSA immunized Hartley Guinea pigs assessed as reduction in skin lesions at 100 ug measured for 48 hrs. The format is functional. Conditions: dose 100 µg.
For assay [4], the target named is Nucleotide-binding oligomerization domain-containing protein 2 (Homo sapiens, UniProt Q9HC29). Description: Activation of NOD2 in HEK293T cells. The format is cell-based. Conditions: filed as activator.
Chain of Nucleotide-binding oligomerization domain-containing protein 2 (Q9HC29 whole entry, the tested form may be a part): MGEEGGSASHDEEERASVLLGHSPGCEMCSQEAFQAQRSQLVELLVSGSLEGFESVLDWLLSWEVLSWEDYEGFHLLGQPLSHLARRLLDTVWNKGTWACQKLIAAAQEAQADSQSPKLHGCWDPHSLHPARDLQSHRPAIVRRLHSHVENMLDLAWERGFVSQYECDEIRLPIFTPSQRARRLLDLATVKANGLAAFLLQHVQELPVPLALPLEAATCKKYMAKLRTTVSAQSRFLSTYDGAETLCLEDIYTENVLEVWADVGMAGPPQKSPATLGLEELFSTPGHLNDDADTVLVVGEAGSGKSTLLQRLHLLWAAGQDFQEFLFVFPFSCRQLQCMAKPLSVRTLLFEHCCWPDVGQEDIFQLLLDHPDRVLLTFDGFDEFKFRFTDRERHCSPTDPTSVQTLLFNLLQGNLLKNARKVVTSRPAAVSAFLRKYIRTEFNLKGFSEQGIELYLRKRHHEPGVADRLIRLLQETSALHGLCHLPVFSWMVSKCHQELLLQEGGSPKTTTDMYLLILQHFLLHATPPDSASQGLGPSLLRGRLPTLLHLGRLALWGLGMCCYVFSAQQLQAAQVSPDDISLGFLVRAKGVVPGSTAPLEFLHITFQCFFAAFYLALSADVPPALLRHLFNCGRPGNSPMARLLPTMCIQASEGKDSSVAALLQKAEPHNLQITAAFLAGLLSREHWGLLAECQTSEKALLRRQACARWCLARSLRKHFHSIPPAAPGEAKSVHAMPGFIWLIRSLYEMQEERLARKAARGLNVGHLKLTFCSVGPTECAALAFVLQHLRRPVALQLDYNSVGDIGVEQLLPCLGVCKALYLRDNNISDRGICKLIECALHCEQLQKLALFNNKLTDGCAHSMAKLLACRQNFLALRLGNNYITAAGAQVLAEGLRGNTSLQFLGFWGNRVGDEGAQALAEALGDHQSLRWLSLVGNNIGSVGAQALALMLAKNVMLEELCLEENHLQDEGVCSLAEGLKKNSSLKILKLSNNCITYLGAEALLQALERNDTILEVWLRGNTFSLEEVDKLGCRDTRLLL

The structures appear in SMILES notation.

Chain of Nuclear factor NF-kappa-B complex (Homo sapiens) (P19838 whole entry, looked up): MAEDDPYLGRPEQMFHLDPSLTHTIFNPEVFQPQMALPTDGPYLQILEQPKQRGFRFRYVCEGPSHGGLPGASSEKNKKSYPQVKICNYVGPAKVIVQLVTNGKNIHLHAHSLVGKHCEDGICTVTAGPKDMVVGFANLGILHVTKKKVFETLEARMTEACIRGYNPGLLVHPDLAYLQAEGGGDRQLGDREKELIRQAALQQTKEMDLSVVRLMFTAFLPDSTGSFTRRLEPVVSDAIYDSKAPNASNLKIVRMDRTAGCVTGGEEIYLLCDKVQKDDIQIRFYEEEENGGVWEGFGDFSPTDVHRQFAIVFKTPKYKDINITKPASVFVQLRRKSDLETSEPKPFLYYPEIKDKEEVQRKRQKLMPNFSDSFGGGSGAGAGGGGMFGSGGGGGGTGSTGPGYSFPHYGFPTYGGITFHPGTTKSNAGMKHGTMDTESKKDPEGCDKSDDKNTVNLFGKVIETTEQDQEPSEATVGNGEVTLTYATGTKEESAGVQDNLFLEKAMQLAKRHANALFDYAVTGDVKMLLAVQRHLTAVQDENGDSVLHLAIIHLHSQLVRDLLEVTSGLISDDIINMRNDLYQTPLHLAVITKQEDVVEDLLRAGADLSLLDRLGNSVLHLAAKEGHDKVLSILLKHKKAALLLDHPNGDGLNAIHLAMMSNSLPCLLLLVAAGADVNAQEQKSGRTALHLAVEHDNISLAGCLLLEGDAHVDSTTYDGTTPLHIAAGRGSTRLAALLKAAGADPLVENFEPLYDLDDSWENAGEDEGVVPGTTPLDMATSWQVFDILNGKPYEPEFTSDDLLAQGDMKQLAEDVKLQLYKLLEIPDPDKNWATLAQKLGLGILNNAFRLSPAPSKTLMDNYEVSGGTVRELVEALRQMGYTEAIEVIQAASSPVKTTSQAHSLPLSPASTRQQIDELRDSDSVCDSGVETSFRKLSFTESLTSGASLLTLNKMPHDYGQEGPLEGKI
Chain of Nuclear factor NF-kappa-B complex (Homo sapiens) (Q00653 whole entry, looked up): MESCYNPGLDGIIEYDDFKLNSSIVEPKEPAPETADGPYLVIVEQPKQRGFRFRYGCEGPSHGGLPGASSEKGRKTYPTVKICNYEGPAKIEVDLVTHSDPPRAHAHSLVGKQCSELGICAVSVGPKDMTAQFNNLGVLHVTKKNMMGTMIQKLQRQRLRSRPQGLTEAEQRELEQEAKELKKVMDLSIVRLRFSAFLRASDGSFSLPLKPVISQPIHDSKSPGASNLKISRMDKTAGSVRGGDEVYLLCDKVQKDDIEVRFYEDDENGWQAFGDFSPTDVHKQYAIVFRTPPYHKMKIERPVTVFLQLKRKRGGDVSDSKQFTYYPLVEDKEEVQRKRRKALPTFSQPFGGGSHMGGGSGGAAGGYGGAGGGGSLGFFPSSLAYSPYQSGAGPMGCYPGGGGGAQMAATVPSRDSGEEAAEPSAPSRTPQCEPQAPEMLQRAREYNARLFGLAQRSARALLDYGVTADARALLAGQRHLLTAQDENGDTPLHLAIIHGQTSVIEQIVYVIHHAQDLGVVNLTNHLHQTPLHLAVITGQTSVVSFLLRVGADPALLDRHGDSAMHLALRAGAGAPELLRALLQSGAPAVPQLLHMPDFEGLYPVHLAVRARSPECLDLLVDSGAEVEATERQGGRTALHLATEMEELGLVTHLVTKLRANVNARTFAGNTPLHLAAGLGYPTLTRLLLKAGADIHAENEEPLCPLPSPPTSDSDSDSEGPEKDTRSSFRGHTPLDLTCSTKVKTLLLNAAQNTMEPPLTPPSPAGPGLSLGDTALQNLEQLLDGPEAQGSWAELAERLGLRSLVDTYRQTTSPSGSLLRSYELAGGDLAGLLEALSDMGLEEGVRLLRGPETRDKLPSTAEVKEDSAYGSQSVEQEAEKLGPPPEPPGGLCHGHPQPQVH
Chain of Nuclear factor NF-kappa-B complex (Homo sapiens) (Q04206 whole entry, looked up): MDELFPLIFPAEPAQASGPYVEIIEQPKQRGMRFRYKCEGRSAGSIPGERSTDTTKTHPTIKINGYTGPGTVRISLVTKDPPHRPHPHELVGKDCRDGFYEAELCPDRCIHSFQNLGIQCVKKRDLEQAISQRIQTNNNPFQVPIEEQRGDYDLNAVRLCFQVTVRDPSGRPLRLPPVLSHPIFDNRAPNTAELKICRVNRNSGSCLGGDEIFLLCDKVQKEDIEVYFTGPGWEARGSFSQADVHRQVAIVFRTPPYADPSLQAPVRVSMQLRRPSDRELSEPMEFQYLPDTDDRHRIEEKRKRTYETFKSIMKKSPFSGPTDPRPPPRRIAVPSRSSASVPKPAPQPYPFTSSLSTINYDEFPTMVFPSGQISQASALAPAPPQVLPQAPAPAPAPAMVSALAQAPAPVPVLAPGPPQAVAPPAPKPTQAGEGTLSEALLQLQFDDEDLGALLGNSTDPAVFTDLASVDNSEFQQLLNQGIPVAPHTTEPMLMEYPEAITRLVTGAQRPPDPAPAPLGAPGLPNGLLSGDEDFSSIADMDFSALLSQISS

As to `CCCCCCCCCCCCCCOC(=O)CC[C@@H](NC(=O)[C@H](C)NC(=O)[C@@H](C)O[C@H]1[C@H](O)[C@@H](CO)O[C@@H](OCc2ccccc2)[C@@H]1N=[N+]=[N-])C(N)=O`, in assay [1], the fold change (FC) worked out at 0.04.

Turning to `CCCCCCCC(=O)NC[C@H]1O[C@@H](O)[C@H](NC(C)=O)[C@@H](O[C@H](C)C(=O)N[C@@H](C)C(=O)N[C@H](CCC(=O)O)C(N)=O)[C@@H]1O`, the Activity in assay [2] was found to be 16.7 mm; in assay [3], 8.8 mm.

In the case of `CC(=O)NC[C@H]1O[C@@H](O)[C@H](NC(C)=O)[C@@H](O[C@H](C)C(=O)N[C@@H](C)C(=O)N[C@H](CCC(=O)O)C(N)=O)[C@@H]1O`, the Activity is recorded as 21.4 mm in assay [2] and 16.7 mm in assay [3].

Turning to `CCCCCCCCCCCCCCCCCC(=O)NC[C@H]1O[C@@H](O)[C@H](NC(C)=O)[C@@H](O[C@H](C)C(=O)N[C@H](C(=O)N[C@H](CCC(=O)O)C(N)=O)C(C)C)[C@@H]1O`, the Activity in assay [2] came to 22.5 mm; in assay [3], 18.5 mm.

`COC(=O)CCC(=O)N[C@@H]1[C@@H](O[C@H](C)C(=O)N[C@@H](C)C(=O)N[C@H](CCC(=O)O)C(N)=O)[C@H](O)[C@@H](CO)O[C@H]1O`: in assay [1], the fold change (FC) amounted to 2.4.

As for `C[C@H](NC(=O)[C@@H](C)O[C@H]1[C@H](O)[C@@H](CO)O[C@@H](O)[C@@H]1NC(=O)C(F)(F)F)C(=O)N[C@H](CCC(=O)O)C(N)=O`, the fold change (FC) in assay [1] stood at 1.9.

As for `CCO[C@@H]1O[C@H](CO)[C@@H](O[C@@H]2O[C@H](CO)[C@@H](O[C@@H]3O[C@H](CO)[C@@H](O[C@@H]4O[C@H](CO)[C@@H](O)[C@H](O[C@H](C)C(=O)N[C@@H](C)C(=O)N[C@H](CCC(=O)N[C@@H](CCCCN)C(=O)N[C@H](C)C(=O)O)C(N)=O)[C@H]4NC(C)=O)[C@H](O)[C@H]3NC(C)=O)[C@H](O)[C@H]2NC(C)=O)[C@H](O[C@H](C)C(=O)N[C@@H](C)C(=O)N[C@H](CCC(=O)N[C@@H](CCCCN)C(=O)N[C@H](C)C(=O)O)C(N)=O)[C@H]1NC(C)=O`, in assay [4], the Activity is 0.09 mU.

In turn, `CCO[C@@H]1O[C@H](CO)[C@@H](O[C@@H]2O[C@H](CO)[C@@H](O[C@@H]3O[C@H](CO)[C@@H](O[C@@H]4O[C@H](CO)[C@@H](O)[C@H](O[C@H](C)C(=O)N[C@@H](C)C(=O)N[C@H](CCC(=O)O)C(N)=O)[C@H]4NC(C)=O)[C@H](O)[C@H]3NC(C)=O)[C@H](O[C@H](C)C(=O)N[C@@H](C)C(=O)N[C@H](CCC(=O)O)C(N)=O)[C@H]2NC(C)=O)[C@H](O)[C@H]1NC(C)=O` registered an Activity in assay [4] of 800 mU.

`C[C@H](NC(=O)[C@@H](C)O[C@H]1[C@H](O)[C@@H](CO)O[C@@H](O)[C@@H]1NOC(=O)CCCC[C@@H]1SC[C@@H]2NC(=O)N[C@@H]21)C(=O)N[C@H](CCC(=O)O)C(N)=O`: the fold change (FC) in assay [1] is 2.5.

With `CC(=O)N[C@@H]1[C@@H](O[C@H](C)C(=O)N[C@H](C(=O)N[C@H](CCC(=O)O)C(N)=O)C(C)C)[C@H](O)[C@@H](CO)O[C@H]1O`, the Activity is reported as 25.2 mm in assay [2] and 24.6 mm in assay [3].

`CCO[C@@H]1O[C@H](CO)[C@@H](O[C@@H]2O[C@H](CO)[C@@H](O[C@@H]3O[C@H](CO)[C@@H](O[C@@H]4O[C@H](CO)[C@@H](O)[C@H](O[C@H](C)C(=O)N[C@@H](C)C(=O)N[C@H](CCC(=O)N[C@@H](CCCCN)C(=O)O)C(N)=O)[C@H]4NC(C)=O)[C@H](O)[C@H]3NC(C)=O)[C@H](O[C@H](C)C(=O)N[C@@H](C)C(=O)N[C@H](CCC(=O)N[C@@H](CCCCN)C(=O)O)C(N)=O)[C@H]2NC(C)=O)[C@H](O)[C@H]1NC(C)=O`: in assay [4], the Activity is 30 mU.

Consider `CC(=O)N[C@@H]1[C@@H](O)[C@H](O[C@@H]2O[C@H](CO)[C@@H](O)[C@H](O[C@H](C)C(=O)N[C@@H](C)C(=O)N[C@H](CCC(=O)N[C@@H](CCCCN)C(=O)O)C(N)=O)[C@H]2NC(C)=O)[C@@H](CO)O[C@H]1O`, for which, in assay [4], the Activity is 100 mU.

For `CC(=O)N[C@@H]1[C@@H](O[C@H](C)C(=O)N[C@@H](CO)C(=O)N[C@H](CCC(=O)O)C(N)=O)[C@H](O)[C@@H](CN)O[C@H]1O`, the Activity in assay [2] was 21.6 mm; in assay [3] it was 22.3 mm.

Turning to `C[C@H](NC(=O)[C@@H](C)O[C@@H]1[C@@H](N)[C@H](O)O[C@H](CN)[C@H]1O)C(=O)N[C@H](CCC(=O)O)C(N)=O`, the Activity in assay [2] amounted to 15.1 mm; in assay [3] it was 9.3 mm.

Regarding `C[C@H](NC(=O)[C@@H](C)O[C@H]1[C@H](O)[C@@H](CO)O[C@@H](O)[C@@H]1NC(=O)CN=[N+]=[N-])C(=O)N[C@H](CCC(=O)O)C(N)=O`, in assay [1], the fold change (FC) came out at 1.8.

Take `CC(=O)NC[C@H]1O[C@@H](O)[C@H](NC(C)=O)[C@@H](O[C@H](C)C(=O)N[C@@H](CO)C(=O)N[C@H](CCC(=O)O)C(N)=O)[C@@H]1O`: the Activity was found to be 20.4 mm in assay [2] and 19.6 mm in assay [3].

With `CCCCCCCCOC(=O)CC[C@@H](NC(=O)[C@H](C)NC(=O)[C@@H](C)O[C@H]1[C@H](O)[C@@H](CO)O[C@@H](OCc2ccccc2)[C@@H]1N=[N+]=[N-])C(N)=O`, in assay [1], the fold change (FC) came to 0.04.

For `CCO[C@@H]1O[C@H](CO)[C@@H](O[C@@H]2O[C@H](CO)[C@@H](O[C@@H]3O[C@H](CO)[C@@H](O[C@@H]4O[C@H](CO)[C@@H](O)[C@H](O[C@H](C)C(=O)N[C@@H](C)C(=O)N[C@H](CCC(=O)N[C@@H](CCCCN)C(=O)N[C@H](C)C(=O)N[C@H](C)C(=O)O)C(N)=O)[C@H]4NC(C)=O)[C@H](O)[C@H]3NC(C)=O)[C@H](O[C@H](C)C(=O)N[C@@H](C)C(=O)N[C@H](CCC(=O)N[C@@H](CCCCN)C(=O)N[C@H](C)C(=O)N[C@H](C)C(=O)O)C(N)=O)[C@H]2NC(C)=O)[C@H](O)[C@H]1NC(C)=O`, the Activity in assay [4] came to 12.5 mU.

In assay [4], `CCO[C@@H]1O[C@H](CO)[C@@H](O[C@@H]2O[C@H](CO)[C@@H](O[C@@H]3O[C@H](CO)[C@@H](O[C@@H]4O[C@H](CO)[C@@H](O)[C@H](O)[C@H]4NC(C)=O)[C@H](O[C@H](C)C(=O)N[C@@H](C)C(=O)N[C@H](CCC(=O)O)C(N)=O)[C@H]3NC(C)=O)[C@H](O)[C@H]2NC(C)=O)[C@H](O[C@H](C)C(=O)N[C@@H](C)C(=O)N[C@H](CCC(=O)O)C(N)=O)[C@H]1NC(C)=O` had an Activity of 80 mU.

As for `CC(=O)N[C@@H]1[C@@H](O[C@H](C)C(=O)N[C@H](C(=O)N[C@H](CCC(=O)O)C(N)=O)C(C)C)[C@H](O)[C@@H](CN)O[C@H]1O`, the Activity came to 20.4 mm in assay [2] and 15.3 mm in assay [3].

Regarding `CC(=O)N[C@@H]1[C@@H](O[C@H](C)C(=O)N[C@@H](C)C(=O)N[C@H](CCC(=O)O)C(N)=O)[C@H](O[C@@H]2O[C@H](CO)[C@@H](O)[C@H](O)[C@H]2NC(C)=O)[C@@H](CO)O[C@H]1O`, the Activity in assay [4] came out at 1000 mU.

In the case of `CCCCCCCCCCCCCCCCCC(=O)NC[C@H]1O[C@@H](O)[C@H](NC(C)=O)[C@@H](O[C@H](C)C(=O)N[C@@H](C)C(=O)N[C@H](CCC(=O)O)C(N)=O)[C@@H]1O`, the Activity was 20.5 mm in assay [2] and 15.8 mm in assay [3].

Turning to `CC(=O)OCC(=O)N[C@@H]1[C@@H](O[C@H](C)C(=O)N[C@@H](C)C(=O)N[C@H](CCC(=O)O)C(N)=O)[C@H](O)[C@@H](CO)O[C@H]1O`, the fold change (FC) in assay [1] came out at 2.2.

Turning to `CC(=O)N[C@@H]1[C@@H](O)[C@H](O[C@@H]2O[C@H](CO)[C@@H](O)[C@H](O[C@H](C)C(=O)N[C@@H](C)C(=O)N[C@H](CCC(=O)O)C(N)=O)[C@H]2NC(C)=O)[C@@H](CO)O[C@H]1O`, the Activity in assay [4] stood at 900 mU.

`CCCCCCCCCCCCCCCCCCCC(=O)NC[C@H]1O[C@@H](O)[C@H](N)[C@@H](O[C@H](C)C(=O)N[C@@H](C)C(=O)N[C@H](CCC(=O)O)C(N)=O)[C@@H]1O.Cl`: the Activity in assay [2] was 8 mm.

Molecule `CCO[C@@H]1O[C@H](CO)[C@@H](O[C@@H]2O[C@H](CO)[C@@H](O[C@@H]3O[C@H](CO)[C@@H](O[C@@H]4O[C@H](CO)[C@@H](O)[C@H](O[C@H](C)C(=O)N[C@@H](C)C(=O)N[C@H](CCC(=O)N[C@@H](CCCCN)C(=O)O)C(N)=O)[C@H]4NC(C)=O)[C@H](O)[C@H]3NC(C)=O)[C@H](O)[C@H]2NC(C)=O)[C@H](O[C@H](C)C(=O)N[C@@H](C)C(=O)N[C@H](CCC(=O)N[C@@H](CCCCN)C(=O)O)C(N)=O)[C@H]1NC(C)=O` registered an Activity in assay [4] of 0.5 mU.

In the case of `CC(=O)NC[C@H]1O[C@@H](O)[C@H](NC(C)=O)[C@@H](O[C@H](C)C(=O)N[C@H](C(=O)N[C@H](CCC(=O)O)C(N)=O)C(C)C)[C@@H]1O`, the Activity worked out at 19.1 mm in assay [2] and 19.5 mm in assay [3].

As to `CC(=O)N[C@@H]1[C@@H](O[C@H](C)C(=O)N[C@@H](CO)C(=O)N[C@H](CCC(=O)O)C(N)=O)[C@H](O)[C@@H](CO)O[C@H]1O`, the figures for the Activity in assay [2] and in assay [3] were 23.1 mm and 21.6 mm, respectively.

Turning to `C[C@H](NC(=O)[C@@H](C)O[C@H]1[C@H](O)[C@@H](CO)O[C@@H](O)[C@@H]1NC(=O)CCC(=O)O)C(=O)N[C@H](CCC(=O)O)C(N)=O`, the fold change (FC) in assay [1] worked out at 2.3.

For `C[C@H](NC(=O)[C@@H](C)O[C@H]1[C@H](O)[C@@H](CO)O[C@@H](OCc2ccccc2)[C@@H]1N=[N+]=[N-])C(=O)N[C@H](CCC(=O)OCc1ccccc1)C(N)=O`, the fold change (FC) in assay [1] turned out to be 0.11.

In the case of `C[C@H](NC(=O)[C@@H](C)O[C@@H]1[C@@H](N)[C@H](O)O[C@H](CN)[C@H]1O)C(=O)N[C@H](CCC(=O)O)C(N)=O.Cl.Cl`, the values for the Activity in assay [2] and in assay [3] were 17.1 mm and 5.1 mm, respectively.

Turning to `CCCCCCCCCCCCCCCCCC(=O)N[C@@H]1[C@@H](O[C@H](C)C(=O)N[C@H](C(=O)N[C@H](CCC(=O)O)C(N)=O)C(C)C)[C@H](O)[C@@H](CN)O[C@H]1O`, the Activity in assay [2] is given as 10.5 mm.

As for `C[C@H](NC(=O)[C@@H](C)O[C@H]1[C@H](O)[C@@H](CO)O[C@@H](OCc2ccccc2)[C@@H]1N=[N+]=[N-])C(=O)N[C@H](CCC(=O)O)C(N)=O`, the fold change (FC) in assay [1] came to 0.08.
